# Molecular target: T1, Vitronectin receptor αVβ3 (Homo sapiens, UniProt P05106+P06756)
# T1 construct: expressed in transfected cells; host or cells: 512P5 cells (plasma membrane preparation)
# Test: Vitronectin Receptor αVβ3 Binding Assay
# Conditions: read-out: VnR (IC50μM)
# T1 sequence (P06756 31-889 limits assumed): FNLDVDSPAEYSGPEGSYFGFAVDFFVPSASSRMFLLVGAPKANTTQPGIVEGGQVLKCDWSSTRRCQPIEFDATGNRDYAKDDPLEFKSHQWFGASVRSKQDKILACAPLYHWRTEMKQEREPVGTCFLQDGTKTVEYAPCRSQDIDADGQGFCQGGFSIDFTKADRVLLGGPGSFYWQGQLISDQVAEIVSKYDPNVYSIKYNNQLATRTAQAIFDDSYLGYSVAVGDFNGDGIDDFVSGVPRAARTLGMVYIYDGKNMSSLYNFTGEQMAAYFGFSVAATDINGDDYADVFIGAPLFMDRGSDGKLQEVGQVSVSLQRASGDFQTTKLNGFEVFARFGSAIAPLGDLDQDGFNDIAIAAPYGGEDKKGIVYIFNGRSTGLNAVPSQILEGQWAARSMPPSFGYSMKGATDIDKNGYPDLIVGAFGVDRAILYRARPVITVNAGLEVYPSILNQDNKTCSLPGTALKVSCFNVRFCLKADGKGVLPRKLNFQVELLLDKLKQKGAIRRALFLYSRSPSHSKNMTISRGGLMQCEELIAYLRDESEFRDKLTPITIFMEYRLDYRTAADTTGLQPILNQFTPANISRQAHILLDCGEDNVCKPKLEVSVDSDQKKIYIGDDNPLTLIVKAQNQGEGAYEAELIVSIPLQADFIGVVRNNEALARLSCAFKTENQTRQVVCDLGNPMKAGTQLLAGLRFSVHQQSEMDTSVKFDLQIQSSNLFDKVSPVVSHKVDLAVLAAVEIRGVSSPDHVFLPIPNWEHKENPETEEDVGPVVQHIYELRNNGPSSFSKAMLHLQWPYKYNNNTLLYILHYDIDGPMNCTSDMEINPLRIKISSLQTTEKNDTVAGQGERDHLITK
# T1 sequence (P06756 891-1048 partner limits assumed): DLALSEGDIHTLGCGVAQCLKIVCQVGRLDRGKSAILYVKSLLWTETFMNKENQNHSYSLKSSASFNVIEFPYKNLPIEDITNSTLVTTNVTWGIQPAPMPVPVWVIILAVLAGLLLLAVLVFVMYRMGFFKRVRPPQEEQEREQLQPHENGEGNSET
# T1 sequence (P05106 27-788): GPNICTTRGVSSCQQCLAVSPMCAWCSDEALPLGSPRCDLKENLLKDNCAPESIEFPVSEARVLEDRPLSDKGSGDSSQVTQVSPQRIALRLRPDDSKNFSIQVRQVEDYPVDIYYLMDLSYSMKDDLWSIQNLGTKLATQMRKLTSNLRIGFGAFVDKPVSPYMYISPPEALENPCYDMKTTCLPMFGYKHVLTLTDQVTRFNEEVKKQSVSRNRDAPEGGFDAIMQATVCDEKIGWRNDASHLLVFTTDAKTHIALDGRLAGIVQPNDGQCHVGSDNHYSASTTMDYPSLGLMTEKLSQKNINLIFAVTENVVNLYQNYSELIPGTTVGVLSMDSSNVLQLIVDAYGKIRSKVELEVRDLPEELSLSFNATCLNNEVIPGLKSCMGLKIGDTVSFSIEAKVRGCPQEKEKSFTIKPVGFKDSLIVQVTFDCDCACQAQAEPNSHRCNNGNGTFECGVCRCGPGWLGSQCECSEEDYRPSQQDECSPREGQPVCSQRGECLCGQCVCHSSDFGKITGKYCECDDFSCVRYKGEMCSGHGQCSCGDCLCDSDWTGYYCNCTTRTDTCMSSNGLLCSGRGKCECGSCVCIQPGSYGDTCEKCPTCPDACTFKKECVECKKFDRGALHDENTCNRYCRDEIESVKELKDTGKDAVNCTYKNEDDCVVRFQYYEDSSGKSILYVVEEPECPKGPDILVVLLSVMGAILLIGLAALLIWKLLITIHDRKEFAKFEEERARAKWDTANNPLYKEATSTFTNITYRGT
row,SMILES,IC50
1,"CC(C)(C)COC(=O)N[C@@H](CNC(=O)c1ccc(OCCNC2=NCCCN2)cc1O)C(=O)O [Example 1, (2S)-3-({2-hydroxy-4-[2-(1,4,5,6-tetrahydropyrimidin-2-ylamino)ethoxy]benzoyl}amino)-2-{[(neopentyloxy)carbonyl]amino}propanoic acid]",0.0241 µM
2,"COC(=O)N[C@@H](CNC(=O)c1ccc(OCCNC2=NCCCN2)cc1O)C(=O)O [Example 2, (2S)-3-({2-hydroxy-4-[2-(1,4,5,6-tetrahydropyrimidin-2-ylamino)ethoxy]benzoyl}-amino)-2-[(methoxycarbonyl)amino]propanoic acid]",0.187 µM
3,"CCOC(=O)N[C@@H](CNC(=O)c1ccc(OCCNC2=NCCCN2)cc1O)C(=O)O [Example 3, (2S)-2-[(ethoxycarbonyl)amino]-3-({2-hydroxy-4-[2-(1,4,5,6-tetrahydropyrimidin-2ylamino)ethoxy]benzoyl}amino)propanoic acid]",0.123 µM
4,"CCCOC(=O)N[C@@H](CNC(=O)c1ccc(OCCNC2=NCCCN2)cc1O)C(=O)O [Example 4, (2S)-3-({2-hydroxy-4-[2-(1,4,5,6-tetrahydropyrimidin-2-ylamino)ethoxy]benzoyl}-amino)-2-[(propoxycarbonyl)amino]propanoic acid]",0.095 µM
5,"CC(C)OC(=O)N[C@@H](CNC(=O)c1ccc(OCCNC2=NCCCN2)cc1O)C(=O)O [Example 5, (2S)-3-({2-hydroxy-4-[2-(1,4,5,6-tetrahydropyrimidin-2-ylamino)ethoxy]benzoyl}-amino)-2-[(isopropoxycarbonyl)amino]propanoic acid]",0.061 µM
6,"C=CCOC(=O)N[C@@H](CNC(=O)c1ccc(OCCNC2=NCCCN2)cc1O)C(=O)O [Example 6, (2S)-2-{[(allyloxy)carbonyl]amino}-3-({2-hydroxy-4-[2-(1,4,5,6-tetrahydropyrimidin-2-ylamino)ethoxy]benzoyl}amino)propanoic acid]",0.108 µM
7,"C=CCCOC(=O)N[C@@H](CNC(=O)c1ccc(OCCNC2=NCCCN2)cc1O)C(=O)O [Example 7, (2S)-2-{[(but-3-enyloxy)carbonyl]amino}-3-({2-hydroxy-4-[2-(1,4,5,6-tetrahydropyrimidin-2-ylamino)ethoxy]benzoyl}amino)propanoic acid]",0.092 µM
8,"CCCCCCOC(=O)N[C@@H](CNC(=O)c1ccc(OCCNC2=NCCCN2)cc1O)C(=O)O [Example 8, (2S)-2-{[(hexyloxy)carbonyl]amino}-3-({2-hydroxy-4-[2-(1,4,5,6-tetrahydropyrimidin-2-ylamino)ethoxy]benzoyl}amino)propanoic acid]",> 1 µM
9,"CCCCCCCCOC(=O)N[C@@H](CNC(=O)c1ccc(OCCNC2=NCCCN2)cc1O)C(=O)O [Example 9, (2S)-3-({2-hydroxy-4-[2-(1,4,5,6-tetrahydropyrimidin-2-ylamino)ethoxy]benzoyl}-amino)-2-{[(octyloxy)carbonyl]amino}propanoic acid]",0.11 µM
10,"O=C(N[C@@H](CNC(=O)c1ccc(OCCNC2=NCCCN2)cc1O)C(=O)O)OCC(Cl)(Cl)Cl [Example 10, (2S)-3-({2-hydroxy-4-[2-(1,4,5,6-tetrahydropyrimidin-2-ylamino)ethoxy]-benzoyl}amino)-2-{[(2,2,2-trichloroethoxy)carbonyl]amino}propanoic acid]",0.061 µM
11,"CCCCOC(=O)N[C@@H](CNC(=O)c1ccc(OCCNC2=NCCCN2)cc1O)C(=O)O [Example 11, (2S)-3-({2-hydroxy-4-[2-(1,4,5,6-tetrahydropyrimidin-2-ylamino)ethoxy]-benzoyl}amino)-2-[(butoxycarbonyl)amino]propanoic acid]",0.0696 µM
12,"CC(C)COC(=O)N[C@@H](CNC(=O)c1ccc(OCCNC2=NCCCN2)cc1O)C(=O)O [Example 12, (2S)-3-({2-hydroxy-4-[2-(1,4,5,6-tetrahydropyrimidin-2-ylamino)ethoxy]benzoyl}-amino)-2-[(isobutoxycarbonyl)amino]propanoic acid]",0.0661 µM
13,"C#CCOC(=O)N[C@@H](CNC(=O)c1ccc(OCCNC2=NCCCN2)cc1O)C(=O)O [Example 13, (2S)-3-({2-hydroxy-4-[2-(1,4,5,6-tetrahydropyrimidin-2-ylamino)ethoxy]benzoyl}-amino)-2-{[(prop-2-ynyloxy)carbonyl]amino}propanoic acid]",0.183 µM
14,"O=C(N[C@@H](CNC(=O)c1ccc(OCCNc2ncccn2)cc1O)C(=O)O)Oc1ccccc1 [Example 54, (2S)-3-({2-hydroxy-4-[2-(pyrimidin-2-ylamino)ethoxy]benzoyl}amino)-2-[(phenoxycarbonyl)amino]propanoic acid]",34 µM
15,"CC(C)COC(=O)N[C@@H](CNC(=O)c1ccc(OCCNc2ncccn2)cc1O)C(=O)O [Example 56, (2S)-3-({2-hydroxy-4-[2-(pyrimidin-2-ylamino)ethoxy]benzoyl}amino)-2-[(isobutoxycarbonyl)amino]propanoic acid]",85.8 µM
16,"CCCCOC(=O)N[C@@H](CNC(=O)c1ccc(OCCNc2ncccn2)cc1O)C(=O)O [Example 59, (2S)-2-[(butoxycarbonyl)amino]-3-({2-hydroxy-4-[2-(pyrimidin-2-ylamino)ethoxy]benzoyl}amino)propanoic acid]",100 µM

# Next, values leading:
row,IC50,SMILES
1,0.0445 µM,"O=C(N[C@@H](CNC(=O)c1ccc(OCCNC2=NCCCN2)cc1O)C(=O)O)OCc1ccccc1 [Example 14, (2S)-2-{[(benzyloxy)carbonyl]amino}-3-({2-hydroxy-4-[2-(1,4,5,6-tetrahydropyrimidin-2-ylamino)ethoxy]benzoyl}amino)propanoic acid]"
2,1.44 µM,"O=C(Nc1ccccc1)N[C@@H](CNC(=O)c1ccc(OCCNC2=NCCCN2)cc1O)C(=O)O [Example 20, (2S)-2-[(anilinocarbonyl)amino]-3-({2-hydroxy-4-[2-(1,4,5,6-tetrahydropyrimidin-2-ylamino)ethoxy]benzoyl}amino)propanoic acid]"
3,1.52 µM,"O=C(NC1CCCCC1)N[C@@H](CNC(=O)c1ccc(OCCNC2=NCCCN2)cc1O)C(=O)O [Example 21, (2S)-2-{[(cyclohexylamino)carbonyl]amino}-3-({2-hydroxy-4-[2-(1,4,5,6-tetrahydropyrimidin-2-ylamino)ethoxy]benzoyl}amino)propanoic acid]"
4,1.02 µM,"Cc1ccc(NC(=O)N[C@@H](CNC(=O)c2ccc(OCCNC3=NCCCN3)cc2O)C(=O)O)cc1 [Example 23, (2S)-3-({2-hydroxy-4-[2-(1,4,5,6-tetrahydropyrimidin-2-ylamino)ethoxy]benzoyl}-amino)-2-[(4-toluidinocarbonyl)amino]propanoic acid]"
5,1.48 µM,"Cc1ccccc1NC(=O)N[C@@H](CNC(=O)c1ccc(OCCNC2=NCCCN2)cc1O)C(=O)O [Example 24, (2S)-3-({2-hydroxy-4-[2-(1,4,5,6-tetrahydropyrimidin-2-ylamino)ethoxy]benzoyl}-amino)-2-[(2-toluidinocarbonyl)amino]propanoic acid]"
6,0.674 µM,"COc1ccccc1NC(=O)N[C@@H](CNC(=O)c1ccc(OCCNC2=NCCCN2)cc1O)C(=O)O [Example 25, (2S)-3-({2-hydroxy-4-[2-(1,4,5,6-tetrahydropyrimidin-2-ylamino)ethoxy]benzoyl}-amino)-2-{[(2-methoxyanilino)carbonyl]amino}propanoic acid]"
7,0.331 µM,"O=C(Nc1ccccc1Cl)N[C@@H](CNC(=O)c1ccc(OCCNC2=NCCCN2)cc1O)C(=O)O [Example 27, (2S)-2-{[(2-chloroanilino)carbonyl]amino}-3-({2-hydroxy-4-[2-(1,4,5,6-tetrahydropyrimidin-2-ylamino)ethoxy]benzoyl}amino)propanoic acid]"
8,0.159 µM,"O=C(Nc1ccccc1Br)N[C@@H](CNC(=O)c1ccc(OCCNC2=NCCCN2)cc1O)C(=O)O [Example 28, (2S)-2-{[(2-bromoanilino)carbonyl]amino}-3-({2-hydroxy-4-[2-(1,4,5,6-tetrahydropyrimidin-2-ylamino)ethoxy]benzoyl}amino)propanoic acid]"
9,0.405 µM,"O=C(Nc1ccccc1-c1ccccc1)N[C@@H](CNC(=O)c1ccc(OCCNC2=NCCCN2)cc1O)C(=O)O [Example 29, (2S)-2-{[([1,1′-biphenyl]-2-ylamino)carbonyl]amino}-3-({2-hydroxy-4-[2-(1,4,5,6-tetrahydropyrimidin-2-ylamino)ethoxy]benzoyl}amino)propanoic acid]"
10,1.27 µM,"O=C(Nc1ccc(Cl)cc1)N[C@@H](CNC(=O)c1ccc(OCCNC2=NCCCN2)cc1O)C(=O)O [Example 30, (2S)-2-{[(4-chloroanilino)carbonyl]amino}-3-({2-hydroxy-4-[2-(1,4,5,6-tetrahydropyrimidin-2-ylamino)ethoxy]benzoyl}amino)propanoic acid]"
11,0.261 µM,"O=C(Nc1cccc2ccccc12)N[C@@H](CNC(=O)c1ccc(OCCNC2=NCCCN2)cc1O)C(=O)O [Example 31, (2S)-3-({2-hydroxy-4-[2-(1,4,5,6-tetrahydropyrimidin-2-ylamino)ethoxy]benzoyl}-amino)-2-{[(1-naphthylamino)carbonyl]amino}propanoic acid]"
12,34 µM,"CC(C)(C)COC(=O)N[C@@H](CNC(=O)c1ccc(OCCNc2ncccn2)cc1O)C(=O)O [Example 53, (2S)-3-({2-hydroxy-4-[2-(pyrimidin-2-ylamino)ethoxy]benzoyl}-amino)-2-{[(neopentyloxy)carbonyl]amino}propanoic acid]"
13,101 µM,"O=C(N[C@@H](CNC(=O)c1ccc(OCCNc2ncccn2)cc1O)C(=O)O)OCc1ccccc1 [Example 55, (2S)-2-{[(benzyloxy)carbonyl]amino}-3-({2-hydroxy-4-[2-(pyrimidin-2-ylamino)ethoxy]benzoyl}amino)propanoic acid]"
14,100 µM,"CCCCCCCCOC(=O)N[C@@H](CNC(=O)c1ccc(OCCNc2ncccn2)cc1O)C(=O)O [Example 58, (2S)-3-({2-hydroxy-4-[2-(pyrimidin-2-ylamino)ethoxy]benzoyl}amino)-2-{[(octyloxy)carbonyl]amino}propanoic acid]"
15,100 µM,"CCCCCCOC(=O)N[C@@H](CNC(=O)c1ccc(OCCNc2ncccn2)cc1O)C(=O)O [Example 62, (2S)-2-{[(hexyloxy)carbonyl]amino}-3-({2-hydroxy-4-[2-(pyrimidin-2-ylamino)-ethoxy]benzoyl}amino)propanoic acid]"

# Reference: US20030186967A1, “Acylresorcinol derivatives are selective vitronectin receptor inhibitors” (American Home Products Corporation, priority 1998, published 2003)
